Measurements taken from patent US20230115416A1, “COMPOSITIONS AND METHODS FOR PROMOTING CELLULAR METABOLIC FITNESS” (priority 2021, published 2023).
Each block holds one molecule with its values, some of them ahead of it.

How the values were obtained:
NMDAR glycine site = NMDAR glycine site (Homo sapiens, UniProt Q05586); assay: Modulation of the NMDAR glycine site in embodiments; conditions: in embodiments of the invention
hair regrowth = conditions: topical petroleum jelly composition, up to 10% by weight, shaved skin of mice; cited from earlier work
[1] = Tinnitus side effect of CMF modulator treatment; assay type: in vivo, human
NMDAR glutamate site = conditions: laboratory studies; cited from earlier work
NMDAR = conditions: by blocking adenosine receptor; cited from earlier work

- modulation of the NMDAR glycine site (NMDAR glycine site): stronger negative modulation effects
SMILES: NCCS(=O)(=O)O [Taurine]

SMILES: N[C@@H](CCC(=O)O)C(=O)O [glutamic acid]
- rate of hair regrowth (hair regrowth): increases the rate of hair regrowth
- tinnitus ([1]; dosed sublingually or topically): issues related to tinnitus have been observed

SMILES: O=C1CC[C@@H](C(=O)O)N1 [pyroglutamic acid]
- tinnitus ([1]; dosed orally): issues related to tinnitus have been observed
- modulation of the NMDAR glutamate site (NMDAR glutamate site): negative modulator

SMILES: Cn1c(=O)c2c(ncn2C)n(C)c1=O [Caffeine]
- NMDAR stimulation (NMDAR): stimulates NMDAR at low micromolar concentrations
